Assay results from patent publication US9815791B2, “Alkylpyrazolyl guanidine F1F0-ATPase inhibitors and therapeutic uses thereof” (Lycera Corporation, priority 2013, dated 2017).

Legend:
[1] = tested on: Ramos cells; assay: Cytotoxicity in Ramos cells; assay type: cell-based; conditions: Homo sapiens, read-out: Ramos Cell EC50
Experimental: Exemplary compounds described in above Examples were tested for activity against F1F0-ATPase by measuring the ability of the compounds to inhibit ATP synthesis. In addition, the compounds were assessed for cytotoxicity in Ramos cells. Inhibition of F1F0-ATPase activity in synthesizing ATP and cytotoxicity in Ramos cells were measured according to the procedures described in K. M. Johnson et al. Chemistry & Biology 2005, 12, 485-496.

[2] = Blood plasma levels after oral administration to mice; assay type: in vivo; conditions: mouse, 10 mg/kg, 5 mL/Kg of 2 mg/mL lipid emulsion
Experimental: (§1) Exemplary compounds were administered orally to animals (i.e., mice or rats), and then blood samples were taken from the animal at set time points and analyzed for the amount of test compound in the blood sample. Experimental procedures and results are described below.
(§2) A lipid emulsion containing the test compound was prepared by first dissolving the test compound in 1:4 Labrafil M1944:Solutol, then adding 0.5% carboxymethylcellulose in water with vigorous stirring to achieve a final ratio of 5:20:75 Labrafil:Solutol:0.5% aqueous CMC. The concentration of test compound in the lipid emulsion was 2 mg/mL.
(§3) Animals (mice or rats) were dosed by oral gavage using 5 mL/Kg of dosing solution. Animals were serially bled from the dorsal metatarsal vein (mice) or jugular vein (rats) at 30 minutes, 1 h, 2 h, 4 h, 8 h and 24 h post-dose. Test compounds 1 and B-1 were administered to a mice. Test compounds A-1 and B-2 were administered to rats.
(§4) The desired serial concentrations of working solutions were achieved by diluting a stock solution of analyte with 60% acetonitrile in water solution. A 5 μL aliquot of working solutions at 10, 20, 50, 100, 500, 1000, 5000, and 10000 ng/mL were added to 50 μL of blank plasma to achieve calibration standards of 1-1000 ng/mL (1, 2, 5, 10, 50, 100, 500, 1000 ng/mL) in a total volume of 55 μL.
(§5) Four quality control samples at 3 ng/mL (low 1), 5 ng/mL (low 2), 50 ng/mL (medium), and 800 ng/mL (high) were prepared independently of those used for the calibration curves. These QC samples were prepared on the day of analysis in the same way as calibration standards.
(§6) 55 μL standards, 55 μL QC samples, and 55 μL unknown samples were added to 200 μL of acetonitrile for precipitating protein respectively. Then, the samples were vortexed for 30 seconds at 4 degree Celsius. After centrifugation at 4 degree Celsius (i.e., 15000 rpm for 5 min) a 20 μL aliquot of the supernatant was analyzed by LC/MS. Unknowns were compared to standards to obtain test compound concentrations for each sample.

[3] = Blood plasma levels after oral administration to rats; assay type: in vivo; conditions: rat, 10 mg/kg, 5 mL/Kg of 2 mg/mL lipid emulsion; for AUC(0-t): heading: AUC0-24, oral gavage; for Cmax: oral gavage
Experimental: as §1, §2, §3, §4, §5, §6

Row | Structure (SMILES) | EC50 [1] | also measured
1 | Cc1c(N/C(=N\C(=O)c2ccc(F)c(F)c2)Nc2cc(F)cc(Cl)c2)n[nH]c1C(F)(F)F [Compound 1, N-(((3-Chloro-5-fluorophenyl)amino)((4-methyl-5-(trifluoromethyl)-1H-pyrazol-3-yl)amino)methylene)-3,4-difluorobenzamide] | < 10 µM | Cmax ([2]; oral gavage): 1590 ng/mL; AUC(0-t) ([2]; oral gavage, read-out: AUC0-24): 8760 ng·h/mL
2 | Cc1c(N/C(=N\C(=O)c2cccc(Cl)c2)Nc2cc(F)cc(Cl)c2)n[nH]c1C(F)(F)F [Compound A-1] | < 10 µM | AUC(0-t) [3]: 10500 ng·h/mL; Cmax [3]: 1440 ng/mL
3 | COc1ccc(C(=O)N=C(Nc2cc(F)cc(Cl)c2)Nc2n[nH]c(C(F)(F)F)c2C)cc1 [Compound A-2] | < 10 µM | –
4 | Cc1c(NC(=NC(=O)c2cccc(Cl)c2)Nc2cccc(Cl)c2)n[nH]c1C(F)(F)F [Compound A-7] | < 10 µM | –
5 | Cc1c(NC(=NC(=O)c2ccc(Cl)cc2Cl)Nc2cccc(C(F)(F)F)c2)n[nH]c1C(F)(F)F [Compound A-8] | < 10 µM | –
6 | Cc1c(NC(=NC(=O)c2ccc(Cl)cc2Cl)Nc2cccc(Cl)c2)n[nH]c1C(F)(F)F [Compound A-9] | < 10 µM | –
7 | COc1ccc(C(=O)N=C(Nc2cccc(Cl)c2)Nc2n[nH]c(C(F)(F)F)c2C)cc1 [Compound A-10] | < 10 µM | –
8 | Cc1c(C(F)(F)F)n[nH]c1NC(=NC(=O)c1ccc(Cl)cc1Cl)Nc1cc(F)cc(Cl)c1 [Compound A-11] | < 10 µM | –
9 | CCn1nc(C(F)(F)F)c(C)c1N/C(=N\C(=O)c1ccc(Cl)cc1Cl)Nc1cc(F)cc(Cl)c1 [Compound A-12] | < 10 µM | –
10 | CCn1nc(C(F)(F)F)c(C)c1N/C(=N\C(=O)c1ccc(Cl)cc1Cl)Nc1cccc(C(F)(F)F)c1 [Compound A-13] | < 10 µM | –
11 | CCn1nc(C(F)(F)F)c(C)c1N/C(=N\C(=O)c1ccc(OC)cc1)Nc1cc(F)cc(Cl)c1 [Compound A-14] | < 10 µM | –
12 | CCn1nc(C(F)(F)F)c(C)c1N/C(=N\C(=O)c1ccc(OC)cc1)Nc1cccc(C(F)(F)F)c1 [Compound A-15] | < 10 µM | –
13 | CCn1nc(C(F)(F)F)c(C)c1N/C(=N\C(=O)c1ccc(OC)cc1)Nc1cccc(Cl)c1 [Compound A-16] | < 10 µM | –
14 | CCn1nc(C(F)(F)F)c(C)c1N/C(=N\C(=O)c1cccc(Cl)c1)Nc1cc(F)cc(Cl)c1 [Compound A-17] | < 10 µM | –
15 | CCn1nc(C(F)(F)F)c(C)c1N/C(=N\C(=O)c1cccc(Cl)c1)Nc1cccc(C(F)(F)F)c1 [Compound A-18] | < 10 µM | –
16 | CCn1nc(C(F)(F)F)c(C)c1N/C(=N\C(=O)c1cccc(Cl)c1)Nc1cccc(Cl)c1 [Compound A-19] | < 10 µM | –
17 | CCn1nc(C(F)(F)F)c(C)c1N/C(=N\C(=O)c1ccc(F)c(F)c1)Nc1cc(F)cc(Cl)c1 [Compound A-20] | < 10 µM | –
18 | CCn1nc(C(F)(F)F)c(C)c1N/C(=N\C(=O)c1ccc(F)c(F)c1)Nc1cccc(C(F)(F)F)c1 [Compound A-21] | < 10 µM | –
19 | CCn1nc(C(F)(F)F)c(C)c1N/C(=N\C(=O)c1ccc(F)c(F)c1)Nc1cccc(Cl)c1 [Compound A-22] | < 10 µM | –
20 | CCn1nc(C(F)(F)F)c(C)c1N/C(=N\C(=O)c1ccc(Cl)cc1Cl)Nc1cccc(Cl)c1 [Compound A-23] | < 10 µM | –

Row | Structure (SMILES) | EC50 [1] | also measured
21 | CCn1nc(C(F)(F)F)c(C)c1N/C(=N\C(=O)c1ccc(Cl)cc1)Nc1cc(F)cc(Cl)c1 [Compound A-24] | < 10 µM | –
22 | CCn1nc(C(F)(F)F)c(C)c1N/C(=N\C(=O)c1ccc(Cl)cc1)Nc1cccc(C(F)(F)F)c1 [Compound A-25] | < 10 µM | –
23 | CCn1nc(C(F)(F)F)c(C)c1N/C(=N\C(=O)c1ccc(Cl)cc1)Nc1cccc(Cl)c1 [Compound A-26] | < 10 µM | –
24 | CCn1nc(C(F)(F)F)c(C)c1N/C(=N\C(=O)c1ccc(Cl)c(F)c1)Nc1cc(F)cc(Cl)c1 [Compound A-27] | < 10 µM | –
25 | CCn1nc(C(F)(F)F)c(C)c1N/C(=N\C(=O)c1ccc(Cl)c(F)c1)Nc1cccc(C(F)(F)F)c1 [Compound A-28] | < 10 µM | –
26 | CCn1nc(C(F)(F)F)c(C)c1N/C(=N\C(=O)c1ccc(Cl)c(F)c1)Nc1cccc(Cl)c1 [Compound A-29] | < 10 µM | –
27 | Cc1c(C(F)(F)F)n[nH]c1NC(=NC(=O)c1ccc(F)c(F)c1)Nc1ccc(Cl)cc1Cl [Compound A-30] | < 10 µM | –
28 | Cc1ccc(N/C(=N/C(=O)c2ccc(F)c(F)c2)Nc2[nH]nc(C(F)(F)F)c2C)c(Cl)c1 [Compound A-31] | < 10 µM | –
29 | Cc1c(NC(=NC(=O)c2ccc(Cl)cc2Cl)Nc2ccc(Cl)cc2Cl)n[nH]c1C(F)(F)F [Compound A-32] | < 10 µM | –
30 | Cc1ccc(NC(=NC(=O)c2ccc(Cl)cc2Cl)Nc2n[nH]c(C(F)(F)F)c2C)c(Cl)c1 [Compound A-33] | < 10 µM | –
31 | Cc1ccc(NC(=NC(=O)c2cccc(Cl)c2)Nc2n[nH]c(C(F)(F)F)c2C)c(Cl)c1 [Compound A-35] | < 10 µM | –
32 | Cc1c(NC(=NC(=O)c2ccc(Cl)cc2)Nc2cc(F)cc(Cl)c2)n[nH]c1C(F)(F)F [Compound A-36] | < 10 µM | –
33 | Cc1c(NC(=NC(=O)c2ccc(Cl)cc2)Nc2cccc(C(F)(F)F)c2)n[nH]c1C(F)(F)F [Compound A-37] | < 10 µM | –
34 | Cc1c(NC(=NC(=O)c2ccc(Cl)cc2)Nc2cccc(Cl)c2)n[nH]c1C(F)(F)F [Compound A-38] | < 10 µM | –
35 | Cc1c(NC(=NC(=O)c2ccc(Cl)c(F)c2)Nc2cc(F)cc(Cl)c2)n[nH]c1C(F)(F)F [Compound A-39] | < 10 µM | –
36 | Cc1c(NC(=NC(=O)c2ccc(Cl)c(F)c2)Nc2cccc(Cl)c2)n[nH]c1C(F)(F)F [Compound A-41] | < 10 µM | –
37 | Cc1c(NC(=NC(=O)c2ccc(C(F)(F)F)cc2)Nc2cccc(Cl)c2)n[nH]c1C(F)(F)F [Compound A-42] | < 10 µM | –
38 | O=C(/N=C(/Nc1cc(F)cc(Cl)c1)Nc1cc(C(F)(F)F)[nH]n1)c1ccc(F)c(F)c1 [Compound B-1, reference compound] | – | AUC(0-t) ([2]; heading: AUC0-24, oral gavage): 4530 ng·h/mL; Cmax ([2]; oral gavage): 609 ng/mL
39 | O=C(/N=C(/Nc1cc(F)cc(Cl)c1)Nc1cc(C(F)(F)F)[nH]n1)c1cccc(Cl)c1 [Compound B-2, reference compound] | – | AUC(0-t) [3]: 5480 ng·h/mL; Cmax [3]: 541 ng/mL
